Assay results: ChEMBL document CHEMBL5236603, “Discovery of mobocertinib, a potent, oral inhibitor of EGFR exon 20 insertion mutations in non-small cell lung cancer” (Bioorg Med Chem Lett, 2023)

Tests used:
[1] = AUClast in CD-1 mouse at 10 mg/kg, po by LC/MS/MS analysis; format: ADME, organism-based; set-up: dose 10 mg/kg, route po; conditions: in vivo
BaF3 = assay: In vivo antitumor activity against mouse BaF3 cells expressing EGFR exon 20 insertion (ex20ins) ASV implanted in SCID mouse assessed as tumor growth inhibition at 100 mg/kg, po administered for 7 consecutive days; format: functional; conditions: BaF3, 168 h, time 7 day, read-out: TGI
[2] = Toxicity in SCID mouse assessed as body weight change at 100 mg/kg, po administered for 7 consecutive days; format: organism-based; conditions: in vivo
[3] = Toxicity in SCID mouse assessed as signs of clinical toxicity at 100 mg/kg, po administered for 7 consecutive days; format: organism-based; conditions: in vivo
[4] = Inhibition of mouse EGFR N771_H773dup H773_V774insNPH […] (NPH) mutant stably expressed in mouse BaF3 cells assessed as cell viability incubated for 3 days by Cell Titer-Glo assay; format: cell-based; conditions: BaF3, 72 h
[5] = target: Epidermal growth factor receptor (Homo sapiens, UniProt P00533); assay: Inhibition of human EGFR at 1 uM by hotspot assay relative to control
[6] = target: Receptor tyrosine-protein kinase erbB-4 (Homo sapiens) (UniProt Q15303); assay: Inhibition of human HER4 at 1 uM by hotspot assay relative to control
[7] = target: T1, Tyrosine-protein kinase JAK3 (Homo sapiens) (UniProt P52333); assay: Inhibition of human JAK3 at 1 uM by hotspot assay relative to control
T1 sequence (whole entry): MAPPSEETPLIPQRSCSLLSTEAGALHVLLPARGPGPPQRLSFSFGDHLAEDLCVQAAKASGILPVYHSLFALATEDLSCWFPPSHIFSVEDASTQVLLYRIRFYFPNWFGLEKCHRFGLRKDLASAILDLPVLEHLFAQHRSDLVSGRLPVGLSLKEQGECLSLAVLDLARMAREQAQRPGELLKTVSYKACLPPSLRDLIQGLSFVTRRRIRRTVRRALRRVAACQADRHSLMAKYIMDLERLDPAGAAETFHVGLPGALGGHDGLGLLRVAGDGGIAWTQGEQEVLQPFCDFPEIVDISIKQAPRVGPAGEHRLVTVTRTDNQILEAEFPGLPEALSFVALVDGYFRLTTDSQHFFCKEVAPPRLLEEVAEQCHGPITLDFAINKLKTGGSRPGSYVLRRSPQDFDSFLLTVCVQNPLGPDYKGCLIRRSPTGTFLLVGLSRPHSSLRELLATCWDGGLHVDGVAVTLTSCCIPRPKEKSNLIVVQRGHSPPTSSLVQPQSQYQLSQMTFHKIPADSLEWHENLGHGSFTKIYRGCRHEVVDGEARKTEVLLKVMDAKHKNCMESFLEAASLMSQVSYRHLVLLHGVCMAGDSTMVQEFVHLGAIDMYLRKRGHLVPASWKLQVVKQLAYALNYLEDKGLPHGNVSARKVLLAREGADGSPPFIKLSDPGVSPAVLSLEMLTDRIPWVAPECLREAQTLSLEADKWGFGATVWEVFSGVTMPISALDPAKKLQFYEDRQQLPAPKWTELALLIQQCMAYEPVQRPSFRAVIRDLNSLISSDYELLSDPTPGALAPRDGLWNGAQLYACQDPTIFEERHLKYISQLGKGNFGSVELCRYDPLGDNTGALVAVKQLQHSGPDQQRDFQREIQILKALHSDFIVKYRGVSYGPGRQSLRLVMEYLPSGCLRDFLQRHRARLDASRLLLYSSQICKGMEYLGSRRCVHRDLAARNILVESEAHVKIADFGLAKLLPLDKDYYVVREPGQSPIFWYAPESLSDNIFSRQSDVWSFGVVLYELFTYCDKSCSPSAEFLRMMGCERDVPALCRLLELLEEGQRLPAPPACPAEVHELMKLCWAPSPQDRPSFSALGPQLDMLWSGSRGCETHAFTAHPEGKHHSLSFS

[8] = target: T2, Cytoplasmic tyrosine-protein kinase BMX (Homo sapiens) (UniProt P51813); assay: Inhibition of human BMX at 1 uM by hotspot assay relative to control
T2 sequence (whole entry): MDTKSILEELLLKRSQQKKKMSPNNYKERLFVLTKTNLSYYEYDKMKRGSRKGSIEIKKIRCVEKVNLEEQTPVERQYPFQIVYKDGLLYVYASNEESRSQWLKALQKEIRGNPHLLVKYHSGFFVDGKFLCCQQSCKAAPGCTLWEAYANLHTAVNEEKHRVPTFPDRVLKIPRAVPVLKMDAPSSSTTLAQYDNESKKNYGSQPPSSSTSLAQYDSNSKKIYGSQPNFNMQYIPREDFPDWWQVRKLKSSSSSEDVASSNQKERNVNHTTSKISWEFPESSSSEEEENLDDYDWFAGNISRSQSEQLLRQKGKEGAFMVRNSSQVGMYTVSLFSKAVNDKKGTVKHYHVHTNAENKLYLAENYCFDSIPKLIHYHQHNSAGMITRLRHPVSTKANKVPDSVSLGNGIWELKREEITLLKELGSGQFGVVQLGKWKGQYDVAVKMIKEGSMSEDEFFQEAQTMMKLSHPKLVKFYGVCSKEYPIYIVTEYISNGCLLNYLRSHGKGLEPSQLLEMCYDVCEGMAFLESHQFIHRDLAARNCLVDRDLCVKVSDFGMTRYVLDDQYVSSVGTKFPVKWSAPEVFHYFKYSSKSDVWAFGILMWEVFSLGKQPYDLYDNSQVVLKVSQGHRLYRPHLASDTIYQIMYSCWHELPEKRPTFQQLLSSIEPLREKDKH

[9] = target: T3, Tyrosine-protein kinase Tec (Homo sapiens) (UniProt P42680); assay: Inhibition of human TEC at 1 uM by hotspot assay relative to control
T3 sequence (whole entry): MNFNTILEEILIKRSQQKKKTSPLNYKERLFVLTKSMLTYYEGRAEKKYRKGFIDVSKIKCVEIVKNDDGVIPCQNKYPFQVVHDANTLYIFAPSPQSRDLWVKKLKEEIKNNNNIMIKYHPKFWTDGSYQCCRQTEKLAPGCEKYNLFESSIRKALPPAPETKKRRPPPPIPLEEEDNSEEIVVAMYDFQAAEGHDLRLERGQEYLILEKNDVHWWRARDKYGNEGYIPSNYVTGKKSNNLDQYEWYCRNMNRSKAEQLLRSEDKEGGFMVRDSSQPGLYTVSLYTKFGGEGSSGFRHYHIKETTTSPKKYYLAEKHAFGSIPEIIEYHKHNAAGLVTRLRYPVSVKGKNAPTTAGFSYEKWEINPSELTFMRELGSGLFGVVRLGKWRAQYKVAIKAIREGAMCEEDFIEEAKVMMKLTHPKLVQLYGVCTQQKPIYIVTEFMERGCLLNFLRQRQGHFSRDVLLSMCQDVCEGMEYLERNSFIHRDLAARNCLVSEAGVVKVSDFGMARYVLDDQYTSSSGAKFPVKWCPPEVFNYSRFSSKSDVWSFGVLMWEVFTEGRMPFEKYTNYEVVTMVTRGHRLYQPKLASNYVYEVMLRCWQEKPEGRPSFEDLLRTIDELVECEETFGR

Chain of Receptor tyrosine-protein kinase erbB-4 (Homo sapiens) (Q15303 whole entry): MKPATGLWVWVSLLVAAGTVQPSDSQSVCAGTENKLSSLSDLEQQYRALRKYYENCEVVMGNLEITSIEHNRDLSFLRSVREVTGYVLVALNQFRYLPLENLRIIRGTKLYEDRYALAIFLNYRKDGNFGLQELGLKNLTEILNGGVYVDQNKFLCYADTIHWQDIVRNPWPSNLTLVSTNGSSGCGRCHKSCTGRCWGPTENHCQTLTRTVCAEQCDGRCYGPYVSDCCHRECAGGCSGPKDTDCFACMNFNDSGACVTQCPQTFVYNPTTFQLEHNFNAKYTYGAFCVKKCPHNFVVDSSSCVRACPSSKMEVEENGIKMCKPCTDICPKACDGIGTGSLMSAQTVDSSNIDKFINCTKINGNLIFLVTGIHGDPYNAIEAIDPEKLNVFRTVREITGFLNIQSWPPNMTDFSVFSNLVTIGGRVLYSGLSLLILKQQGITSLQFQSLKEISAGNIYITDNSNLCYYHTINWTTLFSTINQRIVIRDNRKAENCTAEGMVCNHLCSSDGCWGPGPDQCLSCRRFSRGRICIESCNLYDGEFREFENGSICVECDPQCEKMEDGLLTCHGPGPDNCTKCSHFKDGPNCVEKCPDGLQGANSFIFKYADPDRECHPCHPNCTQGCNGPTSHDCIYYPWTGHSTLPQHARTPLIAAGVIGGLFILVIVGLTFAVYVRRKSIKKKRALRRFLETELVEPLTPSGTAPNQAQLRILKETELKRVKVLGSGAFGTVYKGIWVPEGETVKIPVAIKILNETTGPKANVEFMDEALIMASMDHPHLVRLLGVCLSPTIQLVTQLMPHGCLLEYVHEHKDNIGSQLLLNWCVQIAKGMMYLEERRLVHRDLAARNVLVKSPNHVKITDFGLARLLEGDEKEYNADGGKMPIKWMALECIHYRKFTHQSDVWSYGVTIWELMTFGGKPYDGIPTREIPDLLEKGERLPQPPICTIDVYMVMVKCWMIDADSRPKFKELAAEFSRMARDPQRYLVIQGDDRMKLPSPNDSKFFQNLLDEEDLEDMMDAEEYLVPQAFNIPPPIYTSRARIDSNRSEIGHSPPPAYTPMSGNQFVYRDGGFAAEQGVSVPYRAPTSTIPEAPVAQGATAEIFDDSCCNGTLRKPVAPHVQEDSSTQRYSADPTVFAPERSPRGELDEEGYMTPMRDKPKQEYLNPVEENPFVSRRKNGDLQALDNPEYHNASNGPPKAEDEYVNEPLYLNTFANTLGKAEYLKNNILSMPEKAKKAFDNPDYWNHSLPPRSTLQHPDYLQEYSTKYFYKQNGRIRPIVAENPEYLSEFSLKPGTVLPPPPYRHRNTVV
Chain of Epidermal growth factor receptor (P00533 whole entry): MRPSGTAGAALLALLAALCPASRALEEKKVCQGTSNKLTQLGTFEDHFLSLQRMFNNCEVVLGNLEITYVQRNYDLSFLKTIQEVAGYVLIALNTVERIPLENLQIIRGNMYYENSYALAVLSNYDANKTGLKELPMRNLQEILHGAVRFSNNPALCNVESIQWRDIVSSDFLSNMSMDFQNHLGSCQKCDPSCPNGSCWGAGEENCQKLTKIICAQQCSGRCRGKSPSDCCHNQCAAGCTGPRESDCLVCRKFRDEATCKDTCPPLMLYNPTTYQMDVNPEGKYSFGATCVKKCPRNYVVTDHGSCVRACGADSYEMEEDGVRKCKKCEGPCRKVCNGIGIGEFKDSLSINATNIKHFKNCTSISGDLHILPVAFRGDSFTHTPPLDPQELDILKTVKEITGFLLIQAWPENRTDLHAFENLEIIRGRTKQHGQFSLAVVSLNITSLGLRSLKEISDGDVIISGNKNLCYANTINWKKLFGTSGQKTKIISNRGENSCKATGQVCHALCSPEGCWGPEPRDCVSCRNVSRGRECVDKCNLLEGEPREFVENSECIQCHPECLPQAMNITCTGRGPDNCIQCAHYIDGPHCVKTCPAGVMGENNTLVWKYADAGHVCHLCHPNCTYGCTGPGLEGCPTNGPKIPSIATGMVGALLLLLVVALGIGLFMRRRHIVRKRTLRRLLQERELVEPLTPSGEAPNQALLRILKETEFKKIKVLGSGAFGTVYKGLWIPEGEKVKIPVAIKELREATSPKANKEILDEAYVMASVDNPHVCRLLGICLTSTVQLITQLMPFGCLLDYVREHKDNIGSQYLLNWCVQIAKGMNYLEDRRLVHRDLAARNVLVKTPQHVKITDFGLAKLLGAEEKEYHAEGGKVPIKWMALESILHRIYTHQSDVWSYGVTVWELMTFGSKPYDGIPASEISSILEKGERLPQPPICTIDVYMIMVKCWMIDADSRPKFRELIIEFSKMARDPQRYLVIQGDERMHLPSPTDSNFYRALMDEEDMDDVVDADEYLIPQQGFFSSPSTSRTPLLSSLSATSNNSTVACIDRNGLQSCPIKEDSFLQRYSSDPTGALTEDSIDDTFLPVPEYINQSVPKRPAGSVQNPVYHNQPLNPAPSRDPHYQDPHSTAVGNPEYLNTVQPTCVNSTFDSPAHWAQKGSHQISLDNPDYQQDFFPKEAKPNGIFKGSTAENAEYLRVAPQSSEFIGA

AUC(0-t) [1]: 341 ng·h/mL
inhibition [5]: > 97%
inhibition [6]: > 97%
inhibition [7]: > 81%
inhibition [8]: > 81%
inhibition [9]: > 81%
Structure (SMILES): C=CC(=O)Nc1cc(Nc2ncc(C(=O)OC(C)C)c(-c3cn(C)c4ccccc34)n2)c(OC)cc1N(C)CCN(C)C [MOBOCERTINIB]
inhibition in vivo at 100 mg/kg (BaF3): 89%
Activity [2]: Non-Toxic
Activity [3]: Non-Toxic
IC50 [4]: 18.1 nM
